By EC50 is commonly meant the concentration that produces a half-maximal response.

Our source for the EC50 values is US7704992B2, “Hepatitis C virus inhibitors” (Bristol-Myers Squibb Company, priority 2008, dated 2010).

In the first assay the test system is HCV 1b-377-neo replicon cells. Put plainly: HCV Replicon assay, HCV 1b genotype. In kind it is cell-based. The note with it: Hepatitis C virus, class symbol, read-out: EC50 range against HCV 1b. The procedure: An HCV Replicon assay was utilized in the present disclosure, and was prepared, conducted and validated as described in commonly owned PCT/US2006/022197 and in O'Boyle et. al. Antimicrob Agents Chemother. 2005 April; 49(4): 1346-53.
HCV 1b-377-neo replicon cells were used to test the currently described compound series as well as cells resistant to compound A containing a Y2065H mutation in NS5A (described in application PCT/US2006/022197). The compounds tested were determined to have more than 10-fold less inhibitory activity on cells containing the mutation than wild-type cells indicating a related mechanism of action between the two compound series. Thus, the compounds of the present disclosure can be effective to inhibit the function of the HCV NS5A protein and are understood to be as effective in combinations as previously described in application PCT/US2006/022197 and commonly owned WO/04014852. Further, the compounds of the present disclosure can be effective against the HCV 1b genotype. It should also be understood that the compounds of the present disclosure can inhibit multiple genotypes of HCV. […] In one embodiment compounds of the present disclosure are active against the 1a, 1b, 2a, 2b, 3a, 4a, and 5a genotypes.
A general note: In antiviral work, replicon cells carry a viral genome segment that copies itself.
With `CCN(CC)C(C(=O)N1CCC[C@H]1c1ncc(-c2ccc3c(c2)CN(C)Cc2cc(-c4cnc([C@@H]5CCCN5C(=O)C(c5ccccc5)N(CC)CC)[nH]4)ccc2-3)[nH]1)c1ccccc1` (stereo in doubt) [Example 7, (1S,1′S) -2,2′-((6-methyl-6,7-dihydro-5H-dibenzo[c,e]azepine-3,9-diyl)bis(1H-imidazole-4,2-diyl(2S)-2,1-pyrrolidinediyl)) bis(N,N-diethyl-2-oxo-1-phenylethanamine)], the EC50 was in the range of 0.101 to 0.999 nM.

Consider `CCN(CC)C(C(=O)N1CCC[C@H]1c1ncc(-c2ccc3c(c2)COCc2cc(-c4cnc([C@@H]5CCCN5C(=O)C(c5ccccc5)N(CC)CC)[nH]4)ccc2-3)[nH]1)c1ccccc1` (stereo in doubt) [Example 12, (1S,1′S)-2,2′-(5,7-dihydrodibenzo[c,e]oxepine-3,9-diylbis(1H-imidazole-4,2-diyl(2S)-2,1-pyrrolidinediyl))bis(N,N-diethyl-2-oxo-1-phenylethanamine)], for which the EC50 was in the range of 0.101 to 0.999 nM.

For `COC(=O)N[C@H](C(=O)N1CCC[C@H]1c1ncc(-c2ccc3c(c2)C(O)c2cc(-c4cnc([C@@H]5CCCN5C(=O)[C@@H](NC(=O)OC)C(C)C)[nH]4)ccc2-3)[nH]1)C(C)C` [Example 2, methyl ((1S)-1-(((2S)-2-(5-(9-hydroxy-7-(2-((2S)-1-((2S)-2-((methoxycarbonyl)amino)-3-methylbutanoyl)-2-pyrrolidinyl)-1H-imidazol-5-yl)-9H-fluoren-2-yl)-1H-imidazol-2-yl)-1-pyrrolidinyl)carbonyl)-2-methylpropyl)carbamate], the EC50 fell in the range of 0.101 to 0.999 nM.

Turning to `COC(=O)N[C@H](C(=O)N1CCC[C@H]1c1ncc(-c2ccc3c(c2)C(N(C)C)c2cc(-c4cnc([C@@H]5CCCN5C(=O)[C@@H](NC(=O)OC)C(C)C)[nH]4)ccc2-3)[nH]1)C(C)C` [Example 3, methyl ((1S)-1-(((2S)-2-(5-(9-(dimethylamino)-7-(2-((2S)-1-((2S)-2-((methoxycarbonyl)amino)-3-methylbutanoyl)-2-pyrrolidinyl)-1H-imidazol-5-yl)-9H-fluoren-2-yl)-1H-imidazol-2-yl)-1-pyrrolidinyl)carbonyl)-2-methylpropyl)carbamate], the EC50 is 0.101 to 0.999 nM.

In the case of `COC(=O)N[C@H](C(=O)N1CCC[C@H]1c1ncc(-c2ccc3c(c2)Cc2cc(-c4cnc([C@@H]5CCCN5C(=O)[C@@H](NC(=O)OC)C(C)C)[nH]4)ccc2-3)[nH]1)C(C)C` [Example 4, methyl ((1S)-1-(((2S)-2-(5-(7-(2-((2S)-1-((2S)-2-((methoxycarbonyl)amino)-3-methylbutanoyl)-2-pyrrolidinyl)-1H-imidazol-5-yl)-9H-fluoren-2-yl)-1H-imidazol-2-yl)-1-pyrrolidinyl)carbonyl)-2-methylpropyl)carbamate], the EC50 is 0.001 to 0.1 nM.

As for `COC(=O)N[C@H](C(=O)N1CCC[C@H]1c1ncc(-c2ccc3c(c2)Cc2cc(-c4cnc([C@@H]5CCCN5C(=O)[C@@H](NC(=O)OC)[C@@H](C)OC)[nH]4)ccc2-3)[nH]1)[C@@H](C)OC` [Example 5, methyl ((1S,2R)-2-methoxy-1-(((2S)-2-(5-(7-(2-((2S)-1-(N-(methoxycarbonyl)-O-methyl-L-threonyl)-2-pyrrolidinyl)-1H-imidazol-5-yl)-9H-fluoren-2-yl)-1H-imidazol-2-yl)-1-pyrrolidinyl)carbonyl)propyl)carbamate], the EC50 was in the range of 0.001 to 0.1 nM.

For `COC(=O)N[C@H](C(=O)N1CCC[C@H]1c1ncc(-c2ccc3c(c2)COCc2cc(-c4cnc([C@@H]5CCCN5C(=O)[C@@H](NC(=O)OC)C(C)C)[nH]4)ccc2-3)[nH]1)C(C)C` [Example 8, methyl ((1S)-1-(((2S)-2-(5-(9-(2-((2S)-1-((2S)-2-((methoxycarbonyl)amino)-3-methylbutanoyl)-2-pyrrolidinyl)-1H-imidazol-4-yl)-5,7-dihydrodibenzo[c,e]oxepin-3-yl)-1H-imidazol-2-yl)-1-pyrrolidinyl)carbonyl)-2-methylpropyl)carbamate], the EC50 lay within 0.001 to 0.1 nM.

On to `COC(=O)N[C@@H](C)C(=O)N1CCC[C@H]1c1ncc(-c2ccc3c(c2)COCc2cc(-c4cnc([C@@H]5CCCN5C(=O)[C@H](C)NC(=O)OC)[nH]4)ccc2-3)[nH]1` [Example 9, methyl ((1S)-2-((2S)-2-(4-(9-(2-((2S)-1-(N-(methoxycarbonyl)-L-alanyl)-2-pyrrolidinyl)-1H-imidazol-4-yl)-5,7-dihydrodibenzo[c,e]oxepin-3-yl)-1H-imidazol-2-yl)-1-pyrrolidinyl)-1-methyl-2-oxoethyl)carbamate], for which the EC50 is 0.001 to 0.1 nM.

Consider `COC(=O)N[C@H](C(=O)N1CCC[C@H]1c1ncc(-c2ccc3c(c2)COCc2cc(-c4cnc([C@@H]5CCCN5C(=O)[C@@H](NC(=O)OC)C5CCOCC5)[nH]4)ccc2-3)[nH]1)C1CCOCC1` [Example 10, dimethyl (5,7-dihydrodibenzo[c,e]oxepine-3,9-diylbis(1H-imidazole-4,2-diyl(2S)-2,1-pyrrolidinediyl((1S)-2-oxo-1-(tetrahydro-2H-pyran-4-yl)-2,1-ethanediyl)))biscarbamate], for which the EC50 fell in the range of 0.101 to 0.999 nM.

In the case of `COC(=O)NC(C(=O)N1CCC[C@H]1c1ncc(-c2ccc3c(c2)COCc2cc(-c4cnc([C@@H]5CCCN5C(=O)C(NC(=O)OC)C5CCOCC5)[nH]4)ccc2-3)[nH]1)C1CCOCC1` (stereo partly drawn) [Example 10A, dimethyl (5,7-dihydrodibenzo[c,e]oxepine-3,9-diylbis(1H-imidazole-4,2-diyl(2S)-2,1-pyrrolidinediyl(2-oxo-1-(tetrahydro-2H-pyran-4-yl)-2,1-ethanediyl)))biscarbamate], the EC50 fell in the range of 1 to 99 nM.

On to `COC(=O)N[C@H](C(=O)N1CCC[C@H]1c1ncc(-c2ccc3c(c2)C(C)(N(C)C)c2cc(-c4cnc([C@@H]5CCCN5C(=O)[C@@H](NC(=O)OC)C(C)C)[nH]4)ccc2-3)[nH]1)C(C)C` [Example 13, methyl ((1S)-1-(((2S)-2-(5-(9-(dimethylamino)-7-(2-((2S)-1-((2S)-2-((methoxycarbonyl)amino)-3-methylbutanoyl)-2-pyrrolidinyl)-1H-imidazol-5-yl)-9-methyl-9H-fluoren-2-yl)-1H-imidazol-2-yl)-1-pyrrolidinyl)carbonyl)-2-methylpropyl)carbamate], for which the half-maximal effective concentration (EC50) is 0.001 to 0.1 nM.

Regarding `COC(=O)N[C@H](C(=O)N1CCC[C@H]1c1ncc(-c2ccc3c(c2)C(C)(C)c2cc(-c4cnc([C@@H]5CCCN5C(=O)[C@@H](NC(=O)OC)C(C)C)[nH]4)ccc2-3)[nH]1)C(C)C` [Example 14, methyl ((1S)-1-(((2S)-2-(5-(7-(2-((2S)-1-((2S)-2-((methoxycarbonyl)amino)-3-methylbutanoyl)-2-pyrrolidinyl)-1H-imidazol-5-yl)-9,9-dimethyl-9H-fluoren-2-yl)-1H-imidazol-2-yl)-1-pyrrolidinyl)carbonyl)-2-methylpropyl)carbamate], the EC50 lay within 0.001 to 0.1 nM.

Still in this assay, the particulars now being: Hepatitis C virus, value in nM, read-out: EC50 value against HCV 1b.
`COC(=O)N[C@H](C(=O)N1CCC[C@H]1c1ncc(-c2ccc3c(c2)CN(C)Cc2cc(-c4cnc([C@@H]5CCCN5C(=O)[C@@H](NC(=O)OC)C(C)C)[nH]4)ccc2-3)[nH]1)C(C)C` [Example 6, methyl ((1S)-1-(((2S)-2-(5-(9-(2-((2S)-1-((2S)-2-((methoxycarbonyl)amino)-3-methylbutanoyl)-2-pyrrolidinyl)-1H-imidazol-5-yl)-6-methyl-6,7-dihydro-5H-dibenzo[c,e]azepin-3-yl)-1H-imidazol-2-yl)-1-pyrrolidinyl)carbonyl)-2-methylpropyl) carbamate]: the EC50 came out at 2 nM.

The assay is the same for the next values; noted with them: Hepatitis C virus, value in pM, read-out: EC50 value against HCV 1b.
With `COC(=O)N[C@H](C(=O)N1CCC[C@H]1c1ncc(-c2ccc3c(c2)C(=O)c2cc(-c4cnc([C@@H]5CCCN5C(=O)[C@@H](NC(=O)OC)C(C)C)[nH]4)ccc2-3)[nH]1)C(C)C` [Example 1, methyl ((1S)-1-(((2S)-2-(5-(7-(2-((2S)-1-((2S)-2-((methoxycarbonyl)amino)-3-methylbutanoyl)-2-pyrrolidinyl)-1H-imidazol-5-yl)-9-oxo-9H-fluoren-2-yl)-1H-imidazol-2-yl)-1-pyrrolidinyl)carbonyl)-2-methylpropyl)carbamate], the EC50 came to 0.009 nM.

For the compound `COC(=O)N[C@H](C(=O)N1CCC[C@H]1c1ncc(-c2ccc3c(c2)COCc2cc(-c4cnc([C@@H]5CCCN5C(=O)[C@@H](NC(=O)OC)[C@@H](C)OC)[nH]4)ccc2-3)[nH]1)[C@@H](C)OC` [Example 11, methyl ((1S,2R)-2-methoxy-1-(((2S)-2-(4-(9-(2-((2S)-1-(N-(methoxycarbonyl)-O-methyl-L-threonyl)-2-pyrrolidinyl)-1H-imidazol-4-yl)-5,7-dihydrodibenzo[c,e]oxepin-3-yl)-1H-imidazol-2-yl)-1-pyrrolidinyl)carbonyl)propyl)carbamate], the EC50 worked out at 0.146 nM.

`COC(=O)N[C@H](C(=O)N1CCC[C@H]1c1ncc(-c2ccc3c(c2)C(C)(C)c2cc(-c4cnc([C@@H]5CCCN5C(=O)[C@@H](NC(=O)OC)C5CC5)[nH]4)ccc2-3)[nH]1)C1CC1` [Example 15, dimethyl ((9,9-dimethyl-9H-fluorene-2,7-diyl)bis(1H-imidazole-5,2-diyl(2S)-2,1-pyrrolidinediyl((1S)-1-cyclopropyl-2-oxo-2,1-ethanediyl)))biscarbamate]: the EC50 is 0.052 nM.
